Data: patent US20080085867A1, “Early detection and prognosis of colon cancers” (The Johns Hopkins University, priority 2006, published 2008)

Assays:
[1] = system: colorectal cell lines; assay: RT-PCR re-expression of Neuralized and FOXL2 in colorectal cancer cell lines; type: cell-based, human; conditions: DAC treatment, panel of colorectal cell lines
Experimental: Cell culture and treatment. HCT116 cells and isogenic genetic knockout derivatives were maintained as previously described (Rhee et al^1). For drug treatments, log phase HCT116 cells were cultured in McCoys 5A media (Invitrogen) containing 10% BCS and 1× penicillin/streptomycin with 5 μM 5-aza-deoxycytidine (DAC) (Sigma; stock solution: 1 mM in PBS) for 96 hours, replacing media and DAC every 24 hours. Cell treatment with 300 nM Trichostatin A (Sigma; stock solution: 1.5 mM dissolved in Ethanol) was performed for 18 hours. Control cells underwent mock treatment in parallel with addition of equal volume of PBS without drugs. Methylation and gene expression analysis. RNA was isolated with TRIzolTM Reagent (Invitrogen) according to the manufacturer's instructions. For reverse transcription-PCR (RT-PCR), 1 μg of total RNA was reverse transcribed by using Ready-To-GoTM You-Prime First-Strand Beads (Amersham Biosciences) with addition of random hexamers (0.2 μg per reaction). […] For MSP analysis, DNA was extracted following a standard phenol-chloroform extraction method. Bisulfite modification of genomic DNA was carried out using the EZ DNA methylation KitTM (Zymo Research). […] MSP was performed as previously described (Herman et al.). […]

[2] = system: HCT116 cells; assay: Microarray gene expression of drug-treated cells versus mock-treated cells; type: cell-based, human; conditions: for expression response of the 11 hypermethylated guide genes: 300 nM TSA 18 hours or 5 μM DAC 96 hours
Experimental: Cell culture and treatment. HCT116 cells and isogenic genetic knockout derivatives were maintained as previously described (Rhee et al^1). For drug treatments, log phase HCT116 cells were cultured in McCoys 5A media (Invitrogen) containing 10% BCS and 1× penicillin/streptomycin with 5 μM 5-aza-deoxycytidine (DAC) (Sigma; stock solution: 1 mM in PBS) for 96 hours, replacing media and DAC every 24 hours. Cell treatment with 300 nM Trichostatin A (Sigma; stock solution: 1.5 mM dissolved in Ethanol) was performed for 18 hours. Control cells underwent mock treatment in parallel with addition of equal volume of PBS without drugs.
Microarray analysis. Total RNA was harvested from log phase cells using the Qiagen kit according to the manufacturers instructions, including a DNAase step. RNA was quantified using the Nanoprop ND-100 followed by quality assessment with 2100 Bioanalyzer (Agilent Technologies). RNA concentrations for individual samples were greater than 200 ng/ul, with 28 s/18 s ratios greater than 2.2 and RNA integrity numbers of 10. Sample amplification and labeling procedures were carried out using the Low RNA Input Fluorescent Linear Amplification Kit (Agilent Technologies) according to the manufacturers instructions. The labeled cRNA was purified using the RNeasy mini kit (Qiagen) and quantified. RNA spike-in controls (Agilent Technologies) were added to RNA samples before amplification. 0.75 microgram of samples labeled with Cy3 or Cy5 were mixed with control targets (Agilent Technologies), assembled on Oligo Microarray, hybridized, and processed according to the Agilent microarray protocol. Scanning was performed with the Agilent G2565BA microarray scanner under default settings recommended by Agilent Technologies.
Data analysis. All arrays were subject to quality checks recommended by the manufacturer. […] The log ratio of red signal to green signal was calculated after background-subtraction and LoEss normalization as implemented in the limma package from Bioconductor (Smyth et al. 1; Smyth et al. 2). […]

| SMILES | re-expression of hypermethylated Neuralized and FOXL2 genes [1] | expression response of the 11 hypermethylated guide genes [2] | DAC induced expression for genes in the TSA non-response zone ([2]; 5 μM DAC, 96 hours) |
| --- | --- | --- | --- |
| Nc1ncn([C@H]2C[C@H](O)[C@@H](CO)O2)c(=O)n1 [DAC, 5-aza-deoxycytidine] | ability to re-express the genes | four (SFRP1, TFF2, TFF3, and CHFR) demonstrated re-expression responses near the top | > 2 fold |
| CC(/C=C/C(=O)NO)=C\[C@@H](C)C(=O)c1ccc(N(C)C)cc1 [TSA, Trichostatin A] |  | remained within the TSA non-responsive zone |  |
